Test system: B16F10
Assay: SRB (sulforhodamine B) cell proliferation assay
Assay type: cell-based, murine
Conditions: B16F10 (Example 11); read-out: IC50 (SRB Test-72 h)
Protocol: Growth studies were performed using both MTT and SRB calorimetric assay (Sigma). About 1500 B16F10 or 3000 pancreatic cells (MIA PaCa-2 and PANC1) were seeded in a 96-well culture plate before adding increasing concentrations of monomesylate or bimesylate.
The plates were incubated at 37° C. for 3 days and then were treated depending on SRB or MTT protocols (see material and methods).
In these two cases, the proliferation rates were calculated from the OD readings using the untreated cells as 100%.

## CS(=O)(=O)[O-].Cc1c2cc[n+](CCN3CCCCC3)cc2c(C)c2c1[nH]c1ccc(O)cc12 [BA016FZ539, 2-(betapiperidino-2-ethyl)-9-hydroxyellipticinium methanesulfonate]
  IC50: 4.3 µM

Source: US20090197906A1, “REVERSION OF MALIGNANT PHENOTYPE WITH 9-HYDROXY ELLIPTICINE DERIVATIVES” (priority 2006, published 2009)
